Columns and labels:
[1] = comparison of embedding media; cited from earlier work
[2] = Vapor pressures of embedding media (FIG. 1, from the literature)
Excerpt: The vapor pressures of various embedding media are known from the literature.

O=C(Cc1ccccc1)OCc1ccccc1 [benzyl phenylacetate, benzyl 2-phenylacetate]
vapor pressure (in words) [1]: lowest vapor pressure | vapor pressure, times lower than that of ethyl cinnamate ([2]; at 25° C.): approximately 275 times | volatility, times less volatile than DBE ([2]; expanded section in FIG. 1): about 4 times

CCOC(=O)C=Cc1ccccc1 [ethyl cinnamate, reference compound]
vapor pressure (in words) [1]: comparatively high vapor pressure
